Assay results published in patent US20060003950A1, “Method of treating prostatic diseases using a combination of vitamin D analogues and other agents” (priority 2004, published 2006).
Blank lines part the entries; values can stand above or below the molecule they belong to.

Key:
[1] = biological target: T1, vitamin D receptor (VDR) (Homo sapiens, UniProt P11473); experiment: Vitamin D-inducible growth hormone reporter production in transfected COS-1 cells
T1 sequence (P11473 1-427): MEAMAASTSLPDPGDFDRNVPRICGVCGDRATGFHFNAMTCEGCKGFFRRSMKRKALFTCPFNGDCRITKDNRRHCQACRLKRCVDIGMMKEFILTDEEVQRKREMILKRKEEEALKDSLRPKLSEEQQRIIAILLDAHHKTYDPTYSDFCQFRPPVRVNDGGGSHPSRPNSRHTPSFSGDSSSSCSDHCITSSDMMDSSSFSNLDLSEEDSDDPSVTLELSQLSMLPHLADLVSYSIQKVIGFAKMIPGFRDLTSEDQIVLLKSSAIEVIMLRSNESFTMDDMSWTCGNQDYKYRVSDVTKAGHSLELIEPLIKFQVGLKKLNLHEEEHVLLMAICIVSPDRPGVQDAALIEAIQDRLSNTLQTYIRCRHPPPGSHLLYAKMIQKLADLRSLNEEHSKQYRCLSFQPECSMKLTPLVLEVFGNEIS
Method: Cells in culture were co-transfected into Green monkey kidney, COS-1 cells with these two plasmids. One plasmid contained the gene for Growth Hormone (GH) under the control of the vitamin D responsive element (VDRE) and the other plasmid contained the structural gene for the vitamin D receptor (VDR). These transfected cultures were incubated with 1α,24-(OH)2D2 or 1α,25-(OH)2D3, and the production of growth hormone was measured.

[2] = test system: PC-3; experiment: Inhibition of prostate cell proliferation (DNA amount), PC-3; type: cell-based, human; details: PC-3, 10^−11 M to 10^−7 M, 6-7 days
Method: (§1) The cell lines, LNCaP and PC-3, which are derived from human prostate adenocarcinoma, are seeded in six-well tissue culture plates at a density of about 50,000 cells/plate. After the cells have attached and stabilized, about 2-3 days, the medium is replenished with medium containing vehicle or the active vitamin D analogue 1α,24-(OH)2D2, at concentrations from 10^−11 M to 10^−7 M. Medium containing test analogue or vehicle is replaced every three days. After 6-7 days, the medium is removed, the cells are rinsed, precipitated with cold 5% trichloroacetic acid, and washed with cold ethanol. The cells are solubilized with 0.2 N sodium hydroxide, and the amount of DNA determined by standard procedures.

[3] = test system: LNCaP; experiment: Inhibition of prostate cell proliferation (DNA amount), LNCaP; type: cell-based, human; details: 10^−11 M to 10^−7 M, 6-7 days
Method: as §1

[4] = test system: LNCaP; experiment: Stimulation of prostate cell differentiation (PSA), LNCaP; type: cell-based, human; details: 10^−11 M to 10^−7 M, 6-7 days
Method: Using the techniques of Skowronski et al., 132 Endocrinology (1993) 1952-1960 and 136 Endocrinology (1995) 20-26, both of which are incorporated herein by reference, cells of the cell line, LNCaP, which is derived from a human metastatic prostate adenocarcinoma and known to express PSA, are seeded in six-well tissue culture plates at a density of about 50,000 cells/plate. After the cells have attached and stabilized, about 2-3 days, the medium is replenished with medium containing vehicle or the active vitamin D analogue, 1α,24-(OH)2D2, at concentrations from 10^−11 M to 10^−7 M. After 6-7 days, the medium is removed and stored at −20° C. for prostate specific antigen (PSA) analysis.
The cells from parallel cultures are rinsed, precipitated, and the amount of DNA determined by standard procedures. PSA is measured by standard known methods.

[5] = biological target: T2, prostate VDR (Homo sapiens, UniProt P11473); experiment: VDR binding in soluble extract of prostate-derived cell lines, competition with 3H-1α,25-(OH)2D3; details: 0.01-100 nM against 1 nM 3H-1α,25-(OH)2D3, 16-20 hr at 4° C.
T2 construct: endogenous in cells
T2 sequence (P11473 1-427): T1 sequence (P11473 1-427)
Method: Prostate-derived cell lines are cultured to near confluence, washed and harvested by scraping. Cells are washed by centrifugation, and the cell pellet resuspended in a buffered salt solution containing protease inhibitors. The cells are disrupted by sonication while cooling on ice. The supernatant obtained from centrifuging the disrupted cells at 207,000×g for 35 min at 4° C. is assayed for binding. […] Bound and free hormones are separated with hydroxylapatite using standard procedures. Specific binding is calculated by subtracting nonspecific binding obtained in the presence of a 250-fold excess of nonradioactive 1α,25-(OH)2D3 from the total binding measured.

[6] = test system: Patients with advanced androgen-independent prostate cancer; experiment: Open-labeled clinical study of oral 1α,24-(OH)2D2; type: in vivo; details: daily oral, first phase
Text: On admission to the study, patients begin a course of therapy with oral 1α,24-(OH)2D2 lasting 26 weeks, while discontinuing any previous use of calcium supplements, vitamin D supplements, and vitamin D hormone replacement therapies. During treatment, the patients are monitored at regular intervals for: (1) hypercalcemia, hyperphosphatemia, hypercalciuria, hyperphosphaturia and other toxicity; (2) evidence of changes in the progression of metastatic disease; and (3) compliance with the prescribed test drug dosage.
The study is conducted in two phases. During the first phase, the maximal tolerated dosage (MTD) of daily oral 1α,24-(OH)2D2 is determined by administering progressively higher dosages to successive groups of patients. All doses are administered in the morning before breakfast. […] Subsequent groups of patients are treated with 50.0, 75.0 and 100.0 μg/day.
During the second phase, patients are treated with 1α,24-(OH)2D2 for 24 months at 0.5 and 1.0 times the MTD.

- Total GH Production* ([1]; Molar Concentration 5 × 10^−8): 1182 ng/mL
- Total GH Production* ([1]; Molar Concentration 5 × 10^−9): 1350 ng/mL
- Total GH Production* ([1]; Molar Concentration 5 × 10^−10): 425 ng/mL
Structure (SMILES): C=C1/C(=C\C=C2/CCC[C@]3(C)[C@@H]([C@H](C)/C=C/[C@@](C)(O)C(C)C)CC[C@@H]23)C[C@@H](O)C[C@@H]1O [1α,24(S)—(OH)2D2, 1α,24(S)-dihydroxyvitamin D2]

- Total GH Production* ([1]; Molar Concentration 1 × 10^−7): 1300 ng/mL
- Total GH Production* ([1]; Molar Concentration 1 × 10^−8): 1100 ng/mL
- Total GH Production* ([1]; Molar Concentration 1 × 10^−9): 80 ng/mL
Structure (SMILES): C=C1/C(=C\C=C2/CCC[C@]3(C)[C@@H]([C@H](C)/C=C/[C@](C)(O)C(C)C)CC[C@@H]23)C[C@@H](O)C[C@@H]1O [1α,24(R)—(OH)2D2, 1α,24(R)-dihydroxy-vitamin D2]

Structure (SMILES): C=C1CC[C@H](O)C/C1=C/C=C1\CCC[C@]2(C)[C@@H]([C@H](C)CCCC(C)(C)O)CC[C@@H]12 [25-OH-D3, reference compound]
- Total GH Production* ([1]; Molar Concentration 1 × 10^−5): 775 ng/mL
- Total GH Production* ([1]; Molar Concentration 1 × 10^−6): 1100 ng/mL
- Total GH Production* ([1]; Molar Concentration 1 × 10^−7): 245 ng/mL

Structure (SMILES): C=C1/C(=C\C=C2/CCC[C@]3(C)[C@@H]([C@H](C)/C=C/C(C)(O)C(C)C)CC[C@@H]23)C[C@H](O)C[C@H]1O (stereo partly drawn) [1α,24-(OH)2D2, 1α,24-dihydroxyvitamin D2]
- cell number versus control cultures [2]: significantly fewer cells than the control cultures
- cell number versus control cultures [3]: significantly fewer cells than the control cultures
- PSA versus control cultures, mass of PSA/cell [4]: significantly more PSA than control cultures
- affinity for prostate VDR [5]: strong affinity
- MTD relative to level achievable with 1α,25-(OH)2D3 [6]: 10- to 40 fold
- maximal tolerated dosage (MTD) [6]: above 20.0 μg/day
